Tested on: MV-4-11 cells
Test: Gene expression microarray analysis (Affymetrix PrimeView) and GSEA
Format: cell-based, human
Parameters: RFU PODN (11730768_x_at) / Fold change /veh PODN (11730768_x_at) / RFU LINC00158 (11744669_a_at) / Fold change /veh LINC00158 (11744669_a_at) / RFU DUSP10 (11751237_a_at) / Fold change /veh DUSP10 (11751237_a_at) / RFU ID3 (11757404_x_at) / Fold change /veh ID3 (11757404_x_at) / RFU PLEKHG5 (11737974_s_at) / Fold change /veh PLEKHG5 (11737974_s_at) / RFU LRRC4B (11730491_at) / Fold change /veh LRRC4B (11730491_at) / RFU GIMAP4 (11747438_a_at) / Fold change /veh GIMAP4 (11747438_a_at) / RFU KRT8 (11758183_x_at) / Fold change /veh KRT8 (11758183_x_at) / RFU CNN1 (11734310_a_at) / Fold change /veh CNN1 (11734310_a_at) / RFU VPS37D (11726825_at) / Fold change /veh VPS37D (11726825_at) / RFU C10orf10 (11716522_x_at) / Fold change /veh C10orf10 (11716522_x_at) / RFU KIR2DL2 /// KIR2DL4 /// KIR2DL5A /// KIR2DL5B /// KIR2DS1 /// KIR2DS2 /// KIR2DS3 /// KIR2DS4 /// KIR3DL3 /// KIR3DL3 /// KIR3DS1 (11738374_at) / Fold change /veh KIR2DL2 /// KIR2DL4 /// KIR2DL5A /// KIR2DL5B /// KIR2DS1 /// KIR2DS2 /// KIR2DS3 /// KIR2DS4 /// KIR3DL3 /// KIR3DL3 /// KIR3DS1 (11738374_at) / RFU C1QL1 (11718748_at) / Fold change /veh C1QL1 (11718748_at) / RFU TMPRSS4 (11747572_a_at) / Fold change /veh TMPRSS4 (11747572_a_at) / RFU HAMP (11756126_x_at) / Fold change /veh HAMP (11756126_x_at) / RFU RNFT2 (11725882_a_at) / Fold change /veh RNFT2 (11725882_a_at) / RFU NR4A2 (11747474_a_at) / Fold change /veh NR4A2 (11747474_a_at) / RFU ABCC12 (11746883_a_at) / Fold change /veh ABCC12 (11746883_a_at) / RFU TMEM136 (11760407_x_at) / Fold change /veh TMEM136 (11760407_x_at) / RFU CLDN22 /// WWC2 (11732394_at) / Fold change /veh CLDN22 /// WWC2 (11732394_at) / RFU HLA-DPB1 (11760878_x_at) / Fold change /veh HLA-DPB1 (11760878_x_at) / RFU SPINT1 (11716480_a_at) / Fold change /veh SPINT1 (11716480_a_at) / RFU GAP43 (11754022_s_at) / Fold change /veh GAP43 (11754022_s_at) / RFU A4GNT (11735810_at) / Fold change /veh A4GNT (11735810_at) / RFU PRB3 (11715151_x_at) / Fold change /veh PRB3 (11715151_x_at) / RFU TUBB4B (11761932_at) / Fold change /veh TUBB4B (11761932_at) / RFU CAPN14 (11732068_a_at) / Fold change /veh CAPN14 (11732068_a_at) / RFU TMCC2 (11721928_a_at) / Fold change /veh TMCC2 (11721928_a_at) / RFU IRGQ (11745062_a_at) / Fold change /veh IRGQ (11745062_a_at) / RFU FAM174B (11720279_a_at) / Fold change /veh FAM174B (11720279_a_at) / RFU TMPRSS4 (11748680_a_at) / Fold change /veh TMPRSS4 (11748680_a_at) / RFU FAM212B (11763350_a_at) / Fold change /veh FAM212B (11763350_a_at) / RFU PLEKHG5 (11743358_a_at) / Fold change /veh PLEKHG5 (11743358_a_at) / RFU ZSCAN30 (11745921_a_at) / Fold change /veh ZSCAN30 (11745921_a_at) / RFU CMKLR1 (11741424_a_at) / Fold change /veh CMKLR1 (11741424_a_at) / RFU LOC101060620 /// MAPK8IP1 (11723275_at) / Fold change /veh LOC101060620 /// MAPK8IP1 (11723275_at) / RFU SPTSSB (11747773_x_at) / Fold change /veh SPTSSB (11747773_x_at) / RFU PRSS12 (11739890_at) / Fold change /veh PRSS12 (11739890_at) / RFU BIN1 (11741810_x_at) / Fold change /veh BIN1 (11741810_x_at) / RFU WNT11 (11732464_a_at) / Fold change /veh WNT11 (11732464_a_at) / RFU C10orf10 (11716521_a_at) / Fold change /veh C10orf10 (11716521_a_at) / RFU C5orf56 (11738089_at) / Fold change /veh C5orf56 (11738089_at) / RFU CYB561 (11721691_x_at) / Fold change /veh CYB561 (11721691_x_at) / RFU ANKRD19P (11752326_a_at) / Fold change /veh ANKRD19P (11752326_a_at) / RFU OR2T12 /// OR2T33 /// OR2T8 (11738714_s_at) / Fold change /veh OR2T12 /// OR2T33 /// OR2T8 (11738714_s_at) / RFU VCAN (11748164_a_at) / Fold change /veh VCAN (11748164_a_at) / RFU JSRP1 (11732532_at) / Fold change /veh JSRP1 (11732532_at) / RFU KRTAP10-11 (11738290_x_at) / Fold change /veh KRTAP10-11 (11738290_x_at) / RFU MYO3A (11730013_a_at) / Fold change /veh MYO3A (11730013_a_at) / RFU EBF3 (11725865_a_at) / Fold change /veh EBF3 (11725865_a_at) / RFU CAMK2N1 (11719241_x_at) / Fold change /veh CAMK2N1 (11719241_x_at) / RFU C5orf56 (11738088_a_at) / Fold change /veh C5orf56 (11738088_a_at) / RFU OLFML3 (11715873_a_at) / Fold change /veh OLFML3 (11715873_a_at) / RFU LOC100653217 /// NTM (11731650_a_at) / Fold change /veh LOC100653217 /// NTM (11731650_a_at) / RFU MAPK11 (11762145_a_at) / Fold change /veh MAPK11 (11762145_a_at) / RFU FIZ1 (11724087_x_at) / Fold change /veh FIZ1 (11724087_x_at) / RFU OASL (11726364_x_at) / Fold change /veh OASL (11726364_x_at) / RFU SOX15 (11748057_x_at) / Fold change /veh SOX15 (11748057_x_at) / RFU CD79A (11719716_a_at) / Fold change /veh CD79A (11719716_a_at) / RFU HIST1H1D (11736915_at) / Fold change /veh HIST1H1D (11736915_at) / RFU CASKIN2 (11723855_a_at) / Fold change /veh CASKIN2 (11723855_a_at) / RFU LOC730098 (11760151_x_at) / Fold change /veh LOC730098 (11760151_x_at) / RFU OR4N2 (11742367_at) / Fold change /veh OR4N2 (11742367_at) / RFU PRRT2 (11749266_a_at) / Fold change /veh PRRT2 (11749266_a_at) / RFU SNX32 (11753110_a_at) / Fold change /veh SNX32 (11753110_a_at) / RFU CDHR5 (11726645_a_at) / Fold change /veh CDHR5 (11726645_a_at) / RFU RCAN1 (11760418_a_at) / Fold change /veh RCAN1 (11760418_a_at) / RFU FAM167A (11723789_a_at) / Fold change /veh FAM167A (11723789_a_at) / RFU FAM26E (11764081_at) / Fold change /veh FAM26E (11764081_at) / RFU ISYNA1 (11749810_s_at) / Fold change /veh ISYNA1 (11749810_s_at) / RFU ACY1 (11761880_at) / Fold change /veh ACY1 (11761880_at) / RFU 11764098_at / Fold change /veh 11764098_at / RFU SAMD14 (11745864_x_at) / Fold change /veh SAMD14 (11745864_x_at) / RFU NPB (11741838_a_at) / Fold change /veh NPB (11741838_a_at) / RFU TMPRSS6 (11731388_a_at) / Fold change /veh TMPRSS6 (11731388_a_at) / RFU KRTAP10-2 (11738614_at) / Fold change /veh KRTAP10-2 (11738614_at) / RFU ARHGAP8 /// PRR5-ARHGAP8 (11727945_x_at) / Fold change /veh ARHGAP8 /// PRR5-ARHGAP8 (11727945_x_at) / RFU KRTAP5-7 /// NADSYN1 (11734609_at) / Fold change /veh KRTAP5-7 /// NADSYN1 (11734609_at) / RFU RASL12 (11751679_a_at) / Fold change /veh RASL12 (11751679_a_at) / RFU CDKN2B (11736163_a_at) / Fold change /veh CDKN2B (11736163_a_at) / RFU PRF1 (11729649_at) / Fold change /veh PRF1 (11729649_at) / RFU, ZNF638 /// ZNF638-IT1 / Fold change vs veh, ZNF638 /// ZNF638-IT1 / RFU, PANK3 / Fold change vs veh, PANK3 / RFU, SH3YL1 / Fold change vs veh, SH3YL1 / RFU, ZEB2 / Fold change vs veh, ZEB2 / RFU, NRIP1 / Fold change vs veh, NRIP1 / RFU, PTTG1IP / Fold change vs veh, PTTG1IP / RFU, CAPN2 / Fold change vs veh, CAPN2 / RFU, MED14 / Fold change vs veh, MED14 / RFU, SNORA58 / Fold change vs veh, SNORA58 / RFU, C1orf63 / Fold change vs veh, C1orf63 / RFU, LRRFIP1 / Fold change vs veh, LRRFIP1 / RFU, NDUFAF7 / Fold change vs veh, NDUFAF7 / RFU, SLC12A2 / Fold change vs veh, SLC12A2 / RFU, IBTK / Fold change vs veh, IBTK / RFU, ESF1 / Fold change vs veh, ESF1 / Fold change vs veh, TMEM50B / RFU, TAOK1 / Fold change vs veh, TAOK1 / RFU, ACBD3 / Fold change vs veh, ACBD3 / RFU, TMA16 / Fold change vs veh, TMA16 / RFU, RWDD3 / Fold change vs veh, RWDD3 / RFU, BCAT1 / Fold change vs veh, BCAT1 / RFU, EDEM3 / Fold change vs veh, EDEM3 / RFU, TMEM33 / Fold change vs veh, TMEM33 / RFU, WDR75 / Fold change vs veh, WDR75 / RFU, AHCTF1 / Fold change vs veh, AHCTF1 / RFU, TFRC / Fold change vs veh, TFRC / RFU, ZDHHC17 / Fold change vs veh, ZDHHC17 / RFU, NOM1 / Fold change vs veh, NOM1 / RFU, ARL8B / Fold change vs veh, ARL8B / RFU, ZBTB11 / Fold change vs veh, ZBTB11 / RFU, TAMM41 / Fold change vs veh, TAMM41 / RFU, KIAA1704 /// LOC100996395 / Fold change vs veh, KIAA1704 /// LOC100996395 / RFU, ING1 / Fold change vs veh, ING1 / RFU, TRMT61B / Fold change vs veh, TRMT61B / RFU, FUBP3 / Fold change vs veh, FUBP3 / RFU, TP53 / Fold change vs veh, TP53 / RFU, TNKS2 / Fold change vs veh, TNKS2 / RFU, ZFP14 / Fold change vs veh, ZFP14 / RFU, ACTR2 / Fold change vs veh, ACTR2 / RFU, PPP3R1 / Fold change vs veh, PPP3R1 / RFU, PIK3R1 / Fold change vs veh, PIK3R1 / RFU, HNRNPA1 / Fold change vs veh, HNRNPA1 / RFU, RNF170 / Fold change vs veh, RNF170 / RFU, ZNF28 / Fold change vs veh, ZNF28 / RFU, RNGTT / Fold change vs veh, RNGTT / RFU, OGT / Fold change vs veh, OGT / RFU, BRD1 / Fold change vs veh, BRD1 / RFU, MARS / Fold change vs veh, MARS / RFU, ZNF655 / Fold change vs veh, ZNF655 / RFU, FAHD1 / Fold change vs veh, FAHD1 / RFU, BDP1 / Fold change vs veh, BDP1 / RFU, LRRCC1 / Fold change vs veh, LRRCC1 / RFU, ARID1A / Fold change vs veh, ARID1A / RFU, ZNF146 / Fold change vs veh, ZNF146 / RFU, ZNF330 / Fold change vs veh, ZNF330 / RFU, GPN3 / Fold change vs veh, GPN3 / RFU, C9orf123 / Fold change vs veh, C9orf123 / RFU, N4BP2L2 / Fold change vs veh, N4BP2L2 / RFU, ARFIP1 / Fold change vs veh, ARFIP1 / RFU, FAM179B / Fold change vs veh, FAM179B / RFU, BCL10 / Fold change vs veh, BCL10 / RFU, UHRF1BP1L / Fold change vs veh, UHRF1BP1L / RFU, BET1 / Fold change vs veh, BET1 / RFU, CNOT2 / Fold change vs veh, CNOT2 / RFU, ZNF268 / Fold change vs veh, ZNF268 / Fold change vs veh, ZNF507 / RFU, DGCR2 / Fold change vs veh, DGCR2 / RFU, WDSUB1 / Fold change vs veh, WDSUB1 / Fold change vs veh, HSP90B1 /// MIR3652 / RFU, ADSS / Fold change vs veh, ADSS / RFU, GK / Fold change vs veh, GK / RFU, ZNF148 / Fold change vs veh, ZNF148 / RFU, TAF9 / Fold change vs veh, TAF9 / RFU, SLC1A5 / Fold change vs veh, SLC1A5 / RFU, SLMO2 / Fold change vs veh, SLMO2 / RFU, ABCC4 / Fold change vs veh, ABCC4 / RFU, LOC101060439 /// RAP1B / Fold change vs veh, LOC101060439 /// RAP1B / RFU, RFX7 / Fold change vs veh, RFX7 / RFU, GTPBP10 / Fold change vs veh, GTPBP10 / RFU, CNEP1R1 / Fold change vs veh, CNEP1R1 / RFU, BIVM-ERCC5 /// ERCC5 / Fold change vs veh, BIVM-ERCC5 /// ERCC5 / RFU, ILF3 / Fold change vs veh, ILF3 / RFU 11762660_at / Fold change /veh 11762660_at / RFU VCAN (11757783_s_at) / Fold change /veh VCAN (11757783_s_at) / RFU DDX43 (11728927_at) / Fold change /veh DDX43 (11728927_at) / RFU KRT8 (11758188_x_at) / Fold change /veh KRT8 (11758188_x_at) / RFU NKD1 (11759106_at) / Fold change /veh NKD1 (11759106_at) / RFU SRD5A1 (11742802_a_at) / Fold change /veh SRD5A1 (11742802_a_at) / RFU TPSAB1 /// TPSB2 (11721975_s_at) / Fold change /veh TPSAB1 /// TPSB2 (11721975_s_at) / RFU GSTM3 (11746129_a_at) / Fold change /veh GSTM3 (11746129_a_at) / RFU IL23R (11737362_x_at) / Fold change /veh IL23R (11737362_x_at) / RFU TMEM51 (11727254_a_at) / Fold change /veh TMEM51 (11727254_a_at) / RFU PIWIL2 (11732686_x_at) / Fold change /veh PIWIL2 (11732686_x_at) / RFU ORM1 (11744905_x_at) / Fold change /veh ORM1 (11744905_x_at) / RFU CCDC152 (11743942_at) / Fold change /veh CCDC152 (11743942_at) / RFU ECM1 (11717891_a_at) / Fold change /veh ECM1 (11717891_a_at) / RFU IL23R (11748794_a_at) / Fold change /veh IL23R (11748794_a_at) / RFU TNFAIP8L3 (11732012_x_at) / Fold change /veh TNFAIP8L3 (11732012_x_at) / RFU MBOAT4 (11741988_at) / Fold change /veh MBOAT4 (11741988_at) / RFU 11764193_at / Fold change /veh 11764193_at / RFU TMEM53 (11763286_at) / Fold change /veh TMEM53 (11763286_at) / RFU MAGEB2 (11727129_at) / Fold change /veh MAGEB2 (11727129_at) / RFU TMEM200A (11744735_a_at) / Fold change /veh TMEM200A (11744735_a_at) / RFU CCDC152 (11751479_a_at) / Fold change /veh CCDC152 (11751479_a_at) / RFU FAM211A (11726209_a_at) / Fold change /veh FAM211A (11726209_a_at) / RFU RGS16 (11746705_a_at) / Fold change /veh RGS16 (11746705_a_at) / RFU VCAN (11755009_s_at) / Fold change /veh VCAN (11755009_s_at) / RFU RHOB (11743442_s_at) / Fold change /veh RHOB (11743442_s_at) / RFU RGS16 (11720943_a_at) / Fold change /veh RGS16 (11720943_a_at) / RFU RGS16 (11720944_at) / Fold change /veh RGS16 (11720944_at) / RFU, VPS4B / Fold change vs veh, VPS4B / RFU, CREB1 / Fold change vs veh, CREB1 / RFU, DNAJC13 / Fold change vs veh, DNAJC13 / RFU, GNAQ / Fold change vs veh, GNAQ / RFU, CDK5R1 / Fold change vs veh, CDK5R1 / RFU, ZRANB3 / Fold change vs veh, ZRANB3 / RFU, CUL4A / Fold change vs veh, CUL4A / RFU, CCNY / Fold change vs veh, CCNY / RFU, UFL1 / Fold change vs veh, UFL1 / RFU, COG3 / Fold change vs veh, COG3 / RFU, DIAPH2 / Fold change vs veh, DIAPH2 / RFU, SKA2 / Fold change vs veh, SKA2 / RFU, AFF3 / Fold change vs veh, AFF3 / RFU, LMF1 / Fold change vs veh, LMF1 / RFU, IPO11 / Fold change vs veh, IPO11 / RFU, DFFB / Fold change vs veh, DFFB / RFU, FOXP1 / Fold change vs veh, FOXP1 / RFU, CARD8 / Fold change vs veh, CARD8 / RFU, STRN3 / Fold change vs veh, STRN3 / RFU, ADK / Fold change vs veh, ADK / RFU, RASSF2 / Fold change vs veh, RASSF2 / RFU, WIPF1 / Fold change vs veh, WIPF1 / RFU, LARP1B / Fold change vs veh, LARP1B / RFU, RASA1 / Fold change vs veh, RASA1 / RFU, RB1 / Fold change vs veh, RB1 / RFU, PPFIA1 / Fold change vs veh, PPFIA1 / RFU, MAT2A / Fold change vs veh, MAT2A / RFU, CCT5 / Fold change vs veh, CCT5 / RFU, WDR92 / Fold change vs veh, WDR92 / RFU, CUX1 / Fold change vs veh, CUX1 / RFU, TTC7A / Fold change vs veh, TTC7A / RFU, TMEM135 / Fold change vs veh, TMEM135 / RFU, DEPTOR / Fold change vs veh, DEPTOR / RFU, CPM / Fold change vs veh, CPM / RFU, DNAJB6 / Fold change vs veh, DNAJB6 / RFU, CACNA2D3 / Fold change vs veh, CACNA2D3 / RFU, DTX4 / Fold change vs veh, DTX4 / RFU, TFCP2 / Fold change vs veh, TFCP2 / RFU, GMCL1 /// GMCL1P1 / Fold change vs veh, GMCL1 /// GMCL1P1 / RFU, AEBP2 / Fold change vs veh, AEBP2 / RFU, SNHG1 /// SNORD22 /// SNORD25 /// SNORD26 /// SNORD27 /// SNORD28 /// SNORD29 /// SNORD31 / Fold change vs veh, SNHG1 /// SNORD22 /// SNORD25 /// SNORD26 /// SNORD27 /// SNORD28 /// SNORD29 /// SNORD31 / Fold change (Aza/veh), C12orf56 (ProbeSet 11735607_a_at) / Fold change (ACY-1035/veh), C12orf56 (ProbeSet 11735607_a_at) / Fold change (Aza/veh), FGFR1OP (ProbeSet 11751329_s_at) / Fold change (ACY-1035/veh), FGFR1OP (ProbeSet 11751329_s_at) / Fold change (Aza/veh), VPS36 (ProbeSet 11739960_a_at) / Fold change (ACY-1035/veh), VPS36 (ProbeSet 11739960_a_at) / RFU SYPL1 (11715823_x_at) / Fold change /veh SYPL1 (11715823_x_at) / RFU IGFBP7 (11715501_s_at) / Fold change /veh IGFBP7 (11715501_s_at) / RFU REEP3 (11722064_at) / Fold change /veh REEP3 (11722064_at) / RFU IGLL1 (11728026_x_at) / Fold change /veh IGLL1 (11728026_x_at): dose or concentration left out as unconfirmed
Settings: MV-4-11 cells, 48 hours

## Nc1ccc(-c2cccs2)cc1NC(=O)c1ccc2c(c1)cc(C1CC1)n2CCN1CCOCC1 [ACY-1035]
  RFU TMPRSS4 (11747572_a_at): 57.40 RFU

From publication PMC5218480 (PLoS ONE, 2017)
